Results: publication PMC8460535, “Novel serotonin 5-HT2A receptor antagonists derived from 4-phenylcyclohexane-5-spiro-and 5-methyl-5-phenyl-hydantoin, for use as potential antiplatelet agents” (Pharmacological Reports, 2021)
Several values for one entry are separate records, joined by “and”; a condition that tells them apart may be missing. Identical values can stand only once. Like-named read-outs stand apart in the source and are kept apart here.

Legend:
5-HT2A receptor = details: cited from earlier work
human 5-HT2A receptor [1] = biological target: T1, human 5-HT2A receptor (Homo sapiens, UniProt P28223); test: Aequorin luminescence-based intracellular calcium assay in CHO cells expressing human 5-HT2A; format: cell-based; details: cells expressing human 5-HT2A receptors, antagonist mode vs α-methylserotonin 30 nM; read-out: pKB ± SEM b (converted)
T1 construct: purchased PerkinElmer; host or cells: CHO-K1 cells, stably transfected
Procedure: Tested and reference compounds were dissolved in DMSO at a concentration of 10^–2 M. Serial dilutions were prepared in 96-well microplate in assay buffer and eight to ten concentrations were tested.
A cellular aequorin-based functional assay was performed with recombinant Chinese hamster ovary cells expressing mitochondrially targeted aequorin, human G-protein-coupled receptors, and the promiscuous G protein α16 for 5-HT2A. The full description of this assay is in Supplementary materials.
A cellular aequorin-based functional assay was performed with recombinant Chinese hamster ovary cells expressing mitochondrially targeted aequorin, human G-protein-coupled receptors and the promiscuous G protein α16 for 5-HT2A. After thawing, cells were transferred to assay buffer (Dulbecco's Modified Eagle Medium/HAM’s F12 with 0.1% protease free bovine serum albumin) and centrifuged. The cell pellet was resuspended in assay buffer and coelenterazine h was added at final concentrations of 5 μM. The cells suspension was incubated at 16°C, protected from light with constant agitation for 16 h and then diluted with assay buffer to the concentration of 120,000 cells/ml. After 1 h of incubation, 50 μl of the cells suspension was dispensed using automatic injectors built into the radiometric and luminescence plate counter MicroBeta2 LumiJET (PerkinElmer, USA) into white opaque 96-well microplates preloaded with test compounds. Immediate light emission generated following calcium mobilization was recorded for 30 s. In antagonist mode, after 30 min of incubation the reference agonist was added to the above assay mix and light emission was recorded again. Final concentration of the reference agonist was equal to EC80 of α-methylserotonin (30 nM).

[2] = tested on: whole rat blood aggregation induced by 5-HT and ADP; test: In vitro whole rat blood aggregation induced by 5-HT and sub-threshold ADP; format: cell-based; details: for IC50: 5-HT 6 μM and ADP 1.6 μM, na = not active, read-out: c (5-HT + ADP) IC50
Procedure: (§1) In vitro aggregation assays were performed using freshly drawn whole rat blood with a Multiplate platelet function analyzer (Roche Diagnostic), the five-channel aggregometer based on measurements of electric impedance. Blood was collected from carotid arteries with a hirudin blood tube (Roche Diagnostic). 300 μl of hirudin anticoagulated blood was mixed with 300 μl prewarmed isotonic saline solution containing studied compound or vehicle (deionized water or DMSO 0.1%) and preincubated for 3 min at 37 °C with continuous stirring. Aggregation was induced by adding collagen (Hyphen-Biomed, France) (final concentration 1.6 µg/ml), 5-HT (30 µM) and sub-threshold concentration of collagen (0.8 µg/ml), 5-HT (6 µM) and sub-threshold concentration of ADP (ADP test, Roche Diagnostic), (1.6 µM). The aggregation process was recorded for 6 min. Ketanserin (ketanserin ( +) tartrate salt, Sigma-Aldrich, Germany), sarpogrelate (sarpogrelate hydrochloride, Sigma-Aldrich, Germany), and aspirin (Tocris, UK) were used as reference compounds. The Multiplate software analyzed the area under the curve (AUC) of the clotting process of each measurement and calculated the mean values. Each concentration of studied compounds was tested at least three times. The exact sample size (n value) is presented on Figs. 2–4. Concentration-inhibition curves were constructed and analyzed by non-linear curve fitting using GraphPad Prism 6.0 (GraphPad Software Inc., San Diego, CA, USA).

[3] = biological target: T2, 5-HT2A receptors in rat aorta (Rattus norvegicus, UniProt P14842); test: Functional bioassay at 5-HT2A receptors in isolated rat aorta (5-HT-induced contraction); format: cell-based; details: single antagonist concentration, 30 min incubation, read-out: pKB ± SEM a (converted)
T2 construct: Isolated rat aorta was used to determine the antagonistic activity of studied compounds for 5HT2A-receptors; from tissue; host or cells: aortic rings of male Wistar rats, denuded of the endothelium
Procedure: Isolated rat aorta was used to determine the antagonistic activity of studied compounds for 5HT2A-receptors. The male Wistar rats weighting 200–350 g were anesthetized with thiopental sodium (75 mg/kg i.p.) and the aorta was dissected and placed in a Krebs–Henseleit solution (NaCl 118 mM, KCl 4.7 mM, CaCl2 2.25 mM, MgSO4 1.64 mM, KH2PO4 1.18 mM, NaHCO3 24.88 mM, glucose 10 mM, C3H3O3Na 2.2 mM, EDTA 0.05 mM), denuded of the endothelium, cleaned of surrounding fat tissues and cut into 4-mm-long rings. The aortic rings were incubated in 30 ml chambers filled with a Krebs–Henseleit solution at 37 °C and pH 7.4 with constant oxygenation (O2/CO2, 19:1). Two stainless steel stirrups were inserted through the lumen of each aortic segment: one stirrup was attached to the bottom of the chamber and the other to an isometric FDT10-A force–displacement transducer (BIOPAC Systems, Inc., COMMAT Ltd., Turkey). The aortic rings were stretched and maintained at optimal tension of 2 g and allowed to equilibrate for 2 h.
After the equilibration period, the aortic rings were contracted to maximal tension with KCl (60 mM). The depolarizing solution KCl (60 mM) was obtained by equimolar substitution of […]. Then the cumulative concentration–response curves to 5-HT were determined in the absence and presence of antagonist. Tissues were incubated with antagonists for 30 min.
Concentration–response curves were analyzed using GraphPad Prism 6.0 software (GraphPad Software Inc., San Diego, CA, USA). […] Data are the mean ± SEM of three separate experiments. The affinity was estimated with the equation pKB = log(concentration ratio–1)-log(molar antagonist concentration), where the concentration ratio is the ratio of equi-effective agonist concentrations in the absence and in the presence of the antagonist.

human 5-HT2A receptor [4] = biological target: T1, human 5-HT2A receptor; test: 5-HT2A receptor radioligand binding assay ([3H]-ketanserin, CHO-K1 membranes); details: read-out: Ki [nM] ± SEM
Procedure: Stock solutions of tested compounds (10 mM) were prepared in DMSO. […] Each compound was tested in eight concentrations from 10^–5 to 10^–12 M (final concentration).
Radioligand binding was performed using membranes from CHO-K1 cells stably transfected with the human 5-HT2A receptor (PerkinElmer). All assays were carried out in duplicates. Data were fitted to a one-site curve-fitting equation with Prism 6 (GraphPad Software) and Ki values were estimated from the Cheng − Prusoff equation. The full description of this assay is in Supplementary material.
Mianserin (10 μM) was used to define nonspecific binding. […] The reaction was terminated by rapid filtration through GF/B filter mate presoaked with 0.5% polyethyleneimine for 30 minutes. Ten rapid washes with 200 µl 50 mM Tris buffer (4°C, pH 7.4) were performed using automated harvester system Harvester-96 MACH III FM (Tomtec). […] Radioactivity was counted in MicroBeta2 scintillation counter (PerkinElmer).

[5] = tested on: whole rat blood aggregation induced by 5-HT and collagen; test: In vitro whole rat blood aggregation induced by 5-HT and sub-threshold collagen; format: cell-based; details: 5-HT 30 μM and collagen 0.8 μg/ml, read-out: b (5-HT + collagen) IC50
Procedure: as §1

[6] = tested on: whole rat blood aggregation induced by collagen; test: In vitro whole rat blood aggregation induced by collagen (Multiplate); format: cell-based; details: collagen 1.6 μg/ml, na = not active
Procedure: as §1

[7] = tested on: whole rat blood aggregation induced by 5-HT and ADP; set-up: method as in PMID 29111111; details: 5-HT 6 μM and ADP 1.6 μM, already published, read-out: c (5-HT + ADP) IC50; cited from earlier work
[8] = literature values, no reference given, read-out: 5-HT2A: Ki of conventional antagonists

T2 sequence (P14842 whole entry): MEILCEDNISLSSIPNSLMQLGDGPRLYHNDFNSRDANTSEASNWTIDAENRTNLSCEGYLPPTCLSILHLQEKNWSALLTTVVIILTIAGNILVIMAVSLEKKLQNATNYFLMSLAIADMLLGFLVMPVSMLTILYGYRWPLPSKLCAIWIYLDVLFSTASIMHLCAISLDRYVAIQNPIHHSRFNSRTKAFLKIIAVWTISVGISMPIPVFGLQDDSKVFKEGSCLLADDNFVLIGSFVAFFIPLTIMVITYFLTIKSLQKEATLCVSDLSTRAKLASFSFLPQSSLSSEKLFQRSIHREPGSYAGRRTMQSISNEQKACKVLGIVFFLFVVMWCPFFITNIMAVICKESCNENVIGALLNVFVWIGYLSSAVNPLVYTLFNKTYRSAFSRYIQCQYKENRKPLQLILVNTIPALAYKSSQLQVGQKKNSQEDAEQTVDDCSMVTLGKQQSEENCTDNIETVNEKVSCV
T1 sequence (P28223 whole entry): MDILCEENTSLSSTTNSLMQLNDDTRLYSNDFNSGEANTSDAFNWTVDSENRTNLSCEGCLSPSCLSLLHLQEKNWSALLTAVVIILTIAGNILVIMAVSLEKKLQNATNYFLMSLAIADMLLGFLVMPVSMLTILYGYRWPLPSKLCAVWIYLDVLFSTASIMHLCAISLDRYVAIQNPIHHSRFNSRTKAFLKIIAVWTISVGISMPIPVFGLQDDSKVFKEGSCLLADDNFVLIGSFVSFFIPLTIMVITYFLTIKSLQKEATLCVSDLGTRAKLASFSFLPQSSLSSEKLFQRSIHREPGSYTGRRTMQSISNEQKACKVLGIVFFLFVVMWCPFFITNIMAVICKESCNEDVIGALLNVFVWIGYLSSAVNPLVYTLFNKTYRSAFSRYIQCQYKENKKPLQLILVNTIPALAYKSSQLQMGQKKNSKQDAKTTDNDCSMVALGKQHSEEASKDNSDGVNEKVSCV

Compound | melting point [°C] | Kb (human 5-HT2A receptor [1]) | IC50 [2] [nM] | Kb [3] [nM] | Ki (human 5-HT2A receptor [4]) [nM] | IC50 [5] [nM] | also measured
CC1(c2ccccc2)NC(=O)N(CCCN2CCN(c3ccccc3)CC2)C1=O (stereo not shown) [compound B] |  |  |  |  |  |  | Ki (5-HT2A receptor; 5-HT2A receptors, previous studies, read-out: Ki (5-HT2A) of earlier hydantoin leads): 69 nM
CC1(c2ccccc2)NC(=O)N(CCCN2CCN(C(=O)c3ccc(F)cc3)CC2)C1=O (stereo not shown) [Compound 6, 3-(3-(4-(4-Fluorobenzoyl)piperazin-1-yl)propyl)-5-methyl-5-phenylimidazolidine-2,4-dione] | 72 to 74 |  |  |  |  |  | 
CC1(c2ccccc2)NC(=O)N(CCN2CCN(C(=O)c3ccc(F)cc3)CC2)C1=O (stereo not shown) [Compound 1, 3-(2-(4-(4-Fluorobenzoyl)piperazin-1-yl)ethyl)-5-methyl-5-phenylimidazolidine-2,4-dione] | 117 to 119 |  |  |  |  |  | 
O=C1NC2(CCC(c3ccccc3)CC2)C(=O)N1CCCN1CCN(c2ccc(F)cc2)CC1 (stereo not shown) [Compound 11, 3-(3-(4-(4-Fluorophenyl)piperazin-1-yl)propyl)-8-phenyl-1,3-diazaspiro[4.5]decane-2,4-dione] |  | 175 nM | 140000 ± 44600 | 37.2 | 21 ± 1.7 | 91300 ± 7100 | 
O=C(c1ccc(F)cc1)N1CCN(CCN2C(=O)NC3(CCC(c4ccccc4)CC3)C2=O)CC1 (stereo not shown) [Compound 7, 3-(2-(4-(4-Fluorobenzoyl)piperazin-1-yl)ethyl)-8-phenyl-1,3-diazaspiro[4.5]decane-2,4-dione] | 224 to 226 |  |  |  |  |  | 
O=S1(=O)c2cccc3cccc(c23)N1CCCN1CCN(c2ccc(F)cc2)CC1 [fananserin, reference compound] |  |  |  |  |  |  | Ki (5-HT2A receptor; [8]): 0.37 nM
CC1(c2ccccc2)NC(=O)N(CCCN2CCN(c3ccc(F)cc3)CC2)C1=O (stereo not shown) [Compound 5, 3-(3-(4-(4-Fluorophenyl)piperazin-1-yl)propyl)-5-methyl-5-phenylimidazolidine-2,4-dione] |  | 9290 nM | 124000 ± 36200 | 110 | 48 ± 4.9 | 127000 ± 32700 | 
O=C(c1ccc(F)cc1)C1CCN(CCn2c(=O)[nH]c3ccccc3c2=O)CC1 [Ketanserin, reference compound] |  |  |  |  |  | 1300 | IC50 [6]: 32100 ± 3000 nM; Ki (5-HT2A receptor; [8]): 2 nM; IC50 [7]: 9700 ± 2100 nM
O=C1NC2(CCC(c3ccccc3)CC2)C(=O)N1CCCN1CCN(c2ccccc2F)CC1 (stereo not shown) [Compound 9, 3-(3-(4-(2-Fluorophenyl)piperazin-1-yl)propyl)-8-phenyl-1,3-diazaspiro[4.5]decane-2,4-dione] |  | 1990 nM |  | 95.9 | 220 ± 19.6 | 139000 ± 16100 | 
CC1(c2ccccc2)NC(=O)N(CCCN2CCN(c3ccccc3F)CC2)C1=O (stereo not shown) [Compound 3, 3-(3-(4-(2-Fluorophenyl)piperazin-1-yl)propyl)-5-methyl-5-phenylimidazolidine-2,4-dione] |  | ~175 nM and 175 nM | 37900 ± 6500 | 216 | 516 ± 52 | 17400 ± 10900 | 
CC1(c2ccccc2)NC(=O)N(CCN2CCN(C(c3ccccc3)c3ccccc3)CC2)C1=O (stereo not shown) [Compound 2, 3-(2-(4-Benzhydrylpiperazin-1-yl)ethyl)-5-methyl-5-phenylimidazolidine-2,4-dione] |  | 1970 nM |  | 690 | 450 ± 43.9 | 140000 ± 18900 | inhibitory effect on ADP- and 5-HT-induced blood aggregation ([2]; at a concentration of 200 μM): did not exhibit any significant inhibitory effect
O=C1NC2(CCC(c3ccccc3)CC2)C(=O)N1CCCN1CCN(c2cccc(F)c2)CC1 (stereo not shown) [Compound 10, 3-(3-(4-(3-Fluorophenyl)piperazin-1-yl)propyl)-8-phenyl-1,3-diazaspiro[4.5]decane-2,4-dione] |  |  | 119000 ± 32100 | 501 | 297 ± 19.9 | 94300 ± 53500 | 
O=C1NC2(CCC(c3ccccc3)CC2)C(=O)N1CCN1CCN(C(c2ccccc2)c2ccccc2)CC1 (stereo not shown) [Compound 8, 3-(2-(4-Benzhydrylpiperazin-1-yl)ethyl)-8-phenyl-1,3-diazaspiro[4.5]decane-2,4-dione] | 243 to 245 |  |  |  |  |  | 
O=C(c1ccc(F)cc1)N1CCN(CCCN2C(=O)NC3(CCC(c4ccccc4)CC3)C2=O)CC1 (stereo not shown) [Compound 12, 3-(3-(4-(4-Fluorobenzoyl)piperazin-1-yl)propyl)-8-phenyl-1,3-diazaspiro[4.5]decane-2,4-dione] | 203 to 205 |  |  |  | 2580 ± 302 |  | 
CC1(c2ccccc2)NC(=O)N(CCCN2CCN(c3cccc(F)c3)CC2)C1=O (stereo not shown) [Compound 4, 3-(3-(4-(3-Fluorophenyl)piperazin-1-yl)propyl)-5-methyl-5-phenylimidazolidine-2,4-dione] |  | 9230 nM | 83100 ± 8100 | 440 | 340 ± 57 | 153000 ± 26400 | 
CC(=O)Oc1ccccc1C(=O)O [Aspirin] |  |  |  |  |  |  | IC50 [6]: 14500 ± 1100 nM
